Results as given in PubChem BioAssay (NCI).
Several values for one entry are separate records, joined by “and”; a condition that tells them apart may be missing. Identical values can stand only once.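 Values below derive from 48-hour exposures of cells grown in 96-well plates, with endpoints linearly interpolated between the two concentrations bracketing the appropriate inhibition level. GI50 is the concentration that inhibits growth by half. Definition used: TGI = concentration required for complete inhibition of growth.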

Legend:
Test in all cases: growth of human tumour cells (NCI), 48 h
[1] = system: ACHN renal
[2] = system: CCRF-CEM leukemia
[3] = system: HCT-15 colon
[4] = system: HOP-92 NSCLC
[5] = system: KM12 colon
[6] = system: NCI-H522 lung
[7] = system: NCI/ADR-RES ovarian
[8] = system: OVCAR-4 ovarian
[9] = system: RXF 393 renal
[10] = system: U251 CNS

Structure (SMILES)	GI50 [1]	TGI [1]	GI50 [2]	TGI [2]	GI50 [3]	TGI [3]	GI50 [4]	TGI [4]	GI50 [5]	TGI [5]	GI50 [6]	TGI [6]	GI50 [7]	TGI [7]	GI50 [8]	TGI [8]	GI50 [9]	TGI [9]	GI50 [10]	TGI [10]
C=C(C(=O)c1ccccc1)C(NC(C)(C)C)c1ccccc1 (centres undefined)	1.59 µM	4.51 µM	0.629 µM	43.7 µM	1.88 µM	10 µM	2.38 µM	6.83 µM	2.22 µM	6.36 µM	0.308 µM	1.53 µM	2.63 µM	12.4 µM	4.72 µM	17.1 µM	1.21 µM	2.69 µM	2.2 µM	6.21 µM
CCc1ccc(Oc2c(-c3ccc(OCCc4cccc(C(F)(F)F)c4)cc3O)n[nH]c2C(F)(F)F)cc1	2.18 µM	7.66 µM	2.55 µM	9.18 µM	1.96 µM	6.89 µM	1.36 µM	5.01 µM	4.2 µM	10.8 µM	1.88 µM	5.77 µM	5.19 µM	11.9 µM	2.22 µM	8.05 µM	4.94 µM	11.4 µM	1.81 µM	6.44 µM
CC(C)(C)N1CC1CNC(=O)C(=O)NCC1CN1C(C)(C)C (centres undefined)	–	13.7 µM	–	15.2 µM	–	10.5 µM	–	33.3 µM	–	12.3 µM	–	2.15 µM	–	> 54 µM	–	60.2 µM	–	5.22 µM	–	7.29 µM
Clc1nc(Cl)c2ncn(-c3ccccc3)c2n1	1.96 µM	4.12 µM	2.7 µM	6.55 µM	3.42 µM	16 µM	2.15 µM	5.51 µM	12.8 µM	25.8 µM	1.9 µM	5.09 µM	1.85 µM	3.55 µM	10.5 µM	24.5 µM	5.66 µM	18.8 µM	1.8 µM	3.73 µM
CC[C@]12C=CCN3CC[C@@]4(c5ccc(OC)cc5N(C)[C@H]4[C@@](O)(C(=O)OC)[C@@H]1OC(=O)CCC(=O)O[C@H]1CC[C@H]4[C@@H]5CCC6=CC(=O)CC[C@@H]6[C@H]5CC[C@]14C)[C@@H]32	1.57 µM	> 50 µM	1.66 µM	> 50 µM	1.51 µM	> 50 µM	1.07 µM	4.08 µM	1.88 µM	> 50 µM	1.8 µM	> 50 µM	1.69 µM	> 50 µM	1.79 µM	> 50 µM	1.33 µM	4.21 µM	1.91 µM	> 50 µM
O=S(=O)(NCCNc1nccc(-c2c(-c3ccc(F)cc3)nc3sccn23)n1)c1ccc(O)cc1	2.03 µM	45.6 µM	2 µM	29.8 µM	5 µM	> 100 µM	1.31 µM	9.07 µM	2.05 µM	14.2 µM	3.51 µM	19.2 µM	19.5 µM	> 100 µM	3.52 µM	21.6 µM	4.27 µM	24.8 µM	1.36 µM	23.4 µM
COc1cc(/C=C2\CCC/C(=C\c3cc(CN4CCCC4)c(O)c(OC)c3)C2=O)cc(CN2CCCC2)c1O	1.71 µM	3.43 µM	2.71 µM	8.37 µM	2.34 µM	7.87 µM	2.11 µM	11.8 µM	2.73 µM	7.15 µM	2.5 µM	7.92 µM	3.47 µM	> 100 µM	5.93 µM	> 100 µM	1.72 µM	5.68 µM	3.03 µM	11.2 µM
C=C(C)COc1ccc2c(c1)CCC1C2CCC2(C)C(=O)/C(=N/O)CC12 (centres undefined)	–	15.2 µM	–	6.61 µM	–	7.52 µM	–	10.4 µM	–	5.77 µM	–	17.4 µM	–	21.8 µM	–	9.69 µM	–	6.78 µM	–	16.3 µM
CCCCCCCCCCCCC(O)C1CCC(C(O)CCCCC(O)CCCCCC2CC(CC(C)=O)C(=O)O2)O1 (centres undefined)	–	26.1 µM	–	5.6 µM and 8.12 µM	2.56 µM	5.23 µM and 17.9 µM	3.38 µM	9.29 µM and 12.5 µM	7.64 µM	4.89 µM and 20.5 µM	–	19.9 µM	–	2.3 µM	–	19.1 µM	5.33 µM	21.4 µM	–	18.2 µM
